# Laboratory results reported in article PMC11091879, “Inhibitors of the Thioesterase Activity of Mycobacterium tuberculosis Pks13 Discovered Using DNA-Encoded Chemical Library Screening” (ACS Infectious Diseases, 2024).
# Experiments:
# Format in all cases: cell-based, Mycobacterium tuberculosis
# [1] = tested on: H37Rv Pks13-TE A1561 V mutant
# [2] = tested on: H37Rv Pks13-TE Y1686C mutant
# [3] = tested on: H37Rv Pks13-TE N1640K mutant
# [4] = tested on: H37Rv Pks13-TE V1537A mutant
# [5] = tested on: H37Rv Pks13-TE Y1674C mutant
# [6] = tested on: H37Rv Pks13-TE A1564D mutant
# [7] = tested on: H37Rv Pks13-TE R1563H mutant
# [8] = tested on: H37Rv Pks13-TE V1687F mutant
# WT H37Rv = tested on: WT H37Rv
SMILES,Fold Change in MIC (Mutant MIC/WT H37Rv MIC) [1] [fold],Fold Change in MIC (Mutant MIC/WT H37Rv MIC) [2] [fold],Fold Change in MIC (Mutant MIC/WT H37Rv MIC) [3] [fold],Fold Change in MIC (Mutant MIC/WT H37Rv MIC) [4] [fold],Fold Change in MIC (Mutant MIC/WT H37Rv MIC) [5] [fold],Fold Change in MIC (Mutant MIC/WT H37Rv MIC) [6] [fold],Fold Change in MIC (Mutant MIC/WT H37Rv MIC) [7] [fold],Fold Change in MIC (Mutant MIC/WT H37Rv MIC) [8] [fold],frequency of resistance (FOR) (WT H37Rv)
"CO[C@H]1/C=C/O[C@@]2(C)Oc3c(C)c(O)c4c(O)c(c(/C=N/N5CCN(C)CC5)c(O)c4c3C2=O)NC(=O)/C(C)=C\C=C\[C@H](C)[C@H](O)[C@@H](C)[C@@H](O)[C@@H](C)[C@H](OC(C)=O)[C@@H]1C [Rifampicin, reference compound]",1.2,1,1.5,1.3,1.6,0.8,0.9,1.2,–
COc1ccc(OC)c(-c2ccc(-c3cn(CCc4ccc(C(=O)N(C)C)cc4)nn3)cn2)c1 [X20404],40,19,37,>63,>63,>63,>63,>63,4.7 × 10^–7
Cc1cc(C(=O)NCc2ccncc2)nc(N2CCC(C(=O)N3CCN(C(=O)c4cnc5c(C)cccc5c4)CC3)CC2)n1 [X21429],>57,3.8,>57,8.8,18,17,1.6,2.3,–
